The values below come from PubChem BioAssay AID256 (DTP/NCI, 2004).

The subject of this assay is CD2F1 mice, L1210 leukemia ip, survival T/C. The assay can be described thus: NCI In Vivo Anticancer Drug Screen. Data for tumor model L1210 Leukemia (intraperitoneal) in CD2F1 (CDF1) mice. The settings on record: higher = longer survival. In outline:
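Ratio T/C, where T is the treated-group value and C the vehicle-dosed control value, from mice implanted with a transplantable tumor.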

Where [1] appears, read: endpoint: mean survival time, dose: 100.0 mg/kg/injection, schedule: Q01DX009 (ip), vehicle: saline with Tween-80.
[2] abbreviates: endpoint: mean survival time, dose: 200.0 mg/kg/injection, schedule: Q01DX009 (ip), vehicle: saline with Tween-80.
Where [3] appears, read: endpoint: mean survival time, dose: 400.0 mg/kg/injection, schedule: Q01DX009 (ip), vehicle: saline with Tween-80.
The mark [4] stands for this setting: endpoint: mean survival time, dose: 50.0 mg/kg/injection, schedule: Q01DX009 (ip), vehicle: saline with Tween-80.
Setting [5] is: endpoint: mean survival time, dose: 100.0 mg/kg/injection, schedule: Q01DX001 (ip), vehicle: saline with Tween-80.
[6] abbreviates: endpoint: mean survival time, dose: 200.0 mg/kg/injection, schedule: Q01DX001 (ip), vehicle: saline with Tween-80.
Setting [7] is: endpoint: mean survival time, dose: 400.0 mg/kg/injection, schedule: Q01DX001 (ip), vehicle: saline with Tween-80.
[8] abbreviates: endpoint: mean survival time, dose: 12.5 mg/kg/injection, schedule: Q01DX009 (ip), vehicle: saline with Tween-80.
[9] abbreviates: endpoint: mean survival time, dose: 25.0 mg/kg/injection, schedule: Q01DX009 (ip), vehicle: saline with Tween-80.
[10] abbreviates: endpoint: mean survival time, dose: 50.0 mg/kg/injection, schedule: Q04DX003 (ip), vehicle: saline with Tween-80.
Setting [11] is: endpoint: mean survival time, dose: 100.0 mg/kg/injection, schedule: Q04DX003 (ip), vehicle: saline with Tween-80.
Where [12] appears, read: endpoint: mean survival time, dose: 200.0 mg/kg/injection, schedule: Q04DX003 (ip), vehicle: saline with Tween-80.
Where [13] appears, read: endpoint: mean survival time, dose: 400.0 mg/kg/injection, schedule: Q04DX003 (ip), vehicle: saline with Tween-80.
The mark [14] stands for this setting: endpoint: mean survival time, dose: 100.0 mg/kg/injection, schedule: Q04DX003 (ip), vehicle: saline.
Where [15] appears, read: endpoint: mean survival time, dose: 200.0 mg/kg/injection, schedule: Q04DX003 (ip), vehicle: saline.
Where [16] appears, read: endpoint: mean survival time, dose: 400.0 mg/kg/injection, schedule: Q04DX003 (ip), vehicle: saline.
Where [17] appears, read: endpoint: mean survival time, dose: 100.0 mg/kg/injection, schedule: Q04DX003 (ip), vehicle: saline sonified.
Setting [18] is: endpoint: mean survival time, dose: 200.0 mg/kg/injection, schedule: Q04DX003 (ip), vehicle: saline sonified.

SMILES strings stand for the structures. Where “and” joins values, the source holds several entries; their conditions need not be identical. Equal values may be shown once. Toxic doses and inconclusive results are not listed.

For the molecule `Cc1ccc2ccccc2c1N(CC(=O)O)S(=O)(=O)c1ccccc1`, the T/C was 103 % of control under setting [1], 101 % of control under setting [2] and 88 % of control under setting [3].
With `CN(C=O)c1cc2c3c(c1)CCCN3CCC2`, the T/C is, setting by setting: under setting [4], 100 % of control; under setting [5], 105 % of control; under setting [6], 104 % of control.
With `CC12CCC(O)CC1=CCC1C2CCC2(C)C(O)CCC12` (centres undefined), the T/C is, setting by setting: under setting [5], 97 % of control; under setting [6], 90 % of control; under setting [7], 91 % of control.
Turning to `Cc1cc(C)c(CCl)cc1CCl`, the T/C under setting [8] is 100 % of control, the T/C under setting [9] was 98 % of control and the T/C under setting [10] was 103 % of control.
Take `Cc1ccc([NH-])c([NH-])c1.[Cl][Pt+2][Cl]`: the T/C was 151 % of control (endpoint: mean survival time, dose: 2.5 mg/kg/injection, schedule: Q01DX009 (ip), vehicle: saline with Tween-80); 180 % of control (endpoint: mean survival time, dose: 5.0 mg/kg/injection, schedule: Q01DX009 (ip), vehicle: saline with Tween-80); 94 % of control (endpoint: mean survival time, dose: 20.0 mg/kg/injection, schedule: Q01DX009 (ip), vehicle: saline with Tween-80).
For the molecule `Cc1cc(=O)c2ccccc2n1C`, the T/C reads like this: (endpoint: mean survival time, dose: 5.0 mg/kg/injection, schedule: Q04DX002 (ip), vehicle: saline) 98 % of control; (endpoint: mean survival time, dose: 10.0 mg/kg/injection, schedule: Q04DX002 (ip), vehicle: saline) 98 % of control; (endpoint: mean survival time, dose: 20.0 mg/kg/injection, schedule: Q04DX002 (ip), vehicle: saline) 98 % of control.
For the molecule `CSc1ccccc1C(=O)O`, the T/C under setting [11] was 102 % of control and 95 % of control; the T/C under setting [12] was 96 % of control and 101 % of control; the T/C under setting [13] was 102 % of control and 101 % of control.
On to `Clc1ccc(-c2cc(C3CO3)c3cc(Cl)cc(Cl)c3n2)cc1` (centres undefined), for which the T/C reads like this: (endpoint: mean survival time, dose: 100.0 mg/kg/injection, schedule: Q01DX001 (ip), vehicle: saline) 91 % of control; (endpoint: mean survival time, dose: 200.0 mg/kg/injection, schedule: Q01DX001 (ip), vehicle: saline) 97 % of control; (endpoint: mean survival time, dose: 400.0 mg/kg/injection, schedule: Q01DX001 (ip), vehicle: saline) 91 % of control.
As to `Cc1nc2c(O)cccn2c(=O)c1Cl`, under setting [11], the T/C was 102 % of control.
In the case of `O=S(=O)(/C=C(/Br)c1ccccc1)c1ccccc1`, the T/C was 96 % of control (endpoint: mean survival time, dose: 100.0 mg/kg/injection, schedule: Q01DX009 (ip), vehicle: saline); 100 % of control under setting [14]; 91 % of control (endpoint: mean survival time, dose: 200.0 mg/kg/injection, schedule: Q01DX009 (ip), vehicle: saline); 100 % of control under setting [15]; 90 % of control (endpoint: mean survival time, dose: 400.0 mg/kg/injection, schedule: Q01DX009 (ip), vehicle: saline); 100 % of control under setting [16].
Turning to `CC(C)N1C(=O)C=C(c2ccc([N+](=O)[O-])cc2)C1=O`, the T/C is, setting by setting: (endpoint: mean survival time, dose: 6.25 mg/kg/injection, schedule: Q01DX009 (ip), vehicle: saline with Tween-80) 93 % of control; under setting [8], 95 % of control; under setting [9], 95 % of control; under setting [4], 95 % of control.
In the case of `O=C1COC(C(Cl)(Cl)Cl)CN1` (centres undefined), the T/C is 98 % of control under setting [1]; 102 % of control under setting [11]; 95 % of control under setting [2]; 100 % of control under setting [12]; 102 % of control under setting [3]; 104 % of control under setting [13].
For `S=C1SCCCS1`, the T/C runs as follows: (endpoint: mean survival time, dose: 75.0 mg/kg/injection, schedule: Q04DX003 (ip), vehicle: Klucel (hydroxypropylcellulose) (HPC)) 103 % of control; (endpoint: mean survival time, dose: 150.0 mg/kg/injection, schedule: Q04DX003 (ip), vehicle: Klucel (hydroxypropylcellulose) (HPC)) 98 % of control; (endpoint: mean survival time, dose: 300.0 mg/kg/injection, schedule: Q04DX003 (ip), vehicle: Klucel (hydroxypropylcellulose) (HPC)) 98 % of control.
For the molecule `Nc1ncccc1[N+](=O)[O-]`, the T/C is, setting by setting: under setting [5], 97 % of control; under setting [11], 105 % of control; under setting [6], 96 % of control; under setting [12], 102 % of control; under setting [7], 98 % of control; under setting [13], 105 % of control.
Regarding `Oc1ccccc1-c1nnc(-c2ccccc2)o1`, the T/C is 91 % of control (endpoint: mean survival time, dose: 50.0 mg/kg/injection, schedule: Q04DX002 (ip), vehicle: saline with Tween-80); 87 % of control (endpoint: mean survival time, dose: 100.0 mg/kg/injection, schedule: Q04DX002 (ip), vehicle: saline with Tween-80); 95 % of control (endpoint: mean survival time, dose: 200.0 mg/kg/injection, schedule: Q04DX002 (ip), vehicle: saline with Tween-80); 87 % of control (endpoint: mean survival time, dose: 400.0 mg/kg/injection, schedule: Q04DX002 (ip), vehicle: saline with Tween-80).
Regarding `NC(=O)C(CSCc1ccccc1)NC(=O)OCc1ccccc1` (centres undefined), the T/C is 91 % of control under setting [1], 88 % of control under setting [2] and 91 % of control under setting [3].
With `N#CC[CH2][Sn]([c]1ccccc1)([c]1ccccc1)[c]1ccccc1`, the T/C is 94 % of control under setting [11], 91 % of control under setting [12] and 89 % of control under setting [13].
Turning to `COC(=O)c1ccc(C)c(O)c1[N+](=O)[O-]`, the T/C under setting [1] is 100 % of control, the T/C under setting [2] was 96 % of control and the T/C under setting [3] is 101 % of control.
Turning to `CN(C)S(=O)(=O)CC(O)(c1ccccc1)c1ccccc1`, the T/C is 103 % of control under setting [11], 103 % of control under setting [12] and 110 % of control under setting [13].
For `O=C1CCCCCCCCC1O` (centres undefined), the T/C under setting [11] was 102 % of control, the T/C under setting [12] is 103 % of control and the T/C under setting [13] was 96 % of control.
For the molecule `C=C1C(O)C2(O)OCC34C(CC5C(C)=CC(=O)C(O)C5(C)C23)OC(=O)C(OC(=O)C/C=C(\C)CCCCC)C14` (centres undefined), the T/C reads like this: (endpoint: median survival time, dose: 1.0 mg/kg/injection, schedule: Q01DX005 (ip), vehicle: saline + alcohol) 109 % of control; (endpoint: median survival time, dose: 2.0 mg/kg/injection, schedule: Q01DX005 (ip), vehicle: saline + alcohol) 118 % of control; (endpoint: median survival time, dose: 8.0 mg/kg/injection, schedule: Q01DX005 (ip), vehicle: saline + alcohol) 121 % of control.
For the molecule `O=c1cc[nH]cc1[N+](=O)[O-]`, the T/C reads like this: under setting [4], 101 % of control; under setting [1], 101 % of control; under setting [17], 97 % of control; under setting [2], 100 % of control; under setting [18], 95 % of control.
As to `O=C(CC(Br)C(=O)c1ccccc1)c1ccccc1` (centres undefined), the T/C reads like this: under setting [17], 92 % of control; under setting [18], 94 % of control; (endpoint: mean survival time, dose: 400.0 mg/kg/injection, schedule: Q04DX003 (ip), vehicle: saline sonified) 97 % of control.
With `NC(N)=N/N=C/c1ccc(Cl)c(Cl)c1`, the T/C (endpoint: mean survival time, dose: 12.5 mg/kg/injection, schedule: Q04DX003 (ip), vehicle: saline with Tween-80) was 105 % of control; the T/C (endpoint: mean survival time, dose: 25.0 mg/kg/injection, schedule: Q04DX003 (ip), vehicle: saline with Tween-80) is 97 % of control; the T/C under setting [10] is 94 % of control.
`CC(=O)OCC1OC(OC(C)=O)C(NC(=O)N(CCOCCCl)N=O)C(OC(C)=O)C1OC(C)=O` (centres undefined): the T/C is, setting by setting: (endpoint: mean survival time, dose: 6.25 mg/kg/injection, schedule: Q01DX001 (ip), vehicle: distilled water + Tween-80) 101 % of control; (endpoint: mean survival time, dose: 12.5 mg/kg/injection, schedule: Q01DX001 (ip), vehicle: distilled water + Tween-80) 101 % of control; (endpoint: mean survival time, dose: 25.0 mg/kg/injection, schedule: Q01DX001 (ip), vehicle: distilled water + Tween-80) 93 % of control; (endpoint: mean survival time, dose: 50.0 mg/kg/injection, schedule: Q01DX001 (ip), vehicle: distilled water + Tween-80) 93 % of control; (endpoint: mean survival time, dose: 100.0 mg/kg/injection, schedule: Q01DX001 (ip), vehicle: distilled water + Tween-80) 101 % of control; (endpoint: mean survival time, dose: 200.0 mg/kg/injection, schedule: Q01DX001 (ip), vehicle: distilled water + Tween-80) 97 % of control. For the same molecule, the T/C (endpoint: mean survival time, dose: 400.0 mg/kg/injection, schedule: Q01DX001 (ip), vehicle: distilled water + Tween-80) was 109 % of control.
As for `C=C1C(=O)OC2(C)C(C)=C(C)C12C` (centres undefined), the T/C is, setting by setting: under setting [14], 101 % of control; under setting [15], 112 % of control; under setting [16], 108 % of control.
Turning to `O=C(O)Cc1c[nH]c2ccc(O)cc12`, the T/C runs as follows: under setting [1], 98 % of control; under setting [11], 105 % of control; under setting [2], 96 % of control; under setting [12], 100 % of control; under setting [3], 95 % of control; under setting [13], 100 % of control.
